Source: the NIST ThermoML archive (doi:10.1021/je300517q)
± gives the expanded uncertainty stated by the source.

How the values were obtained:
[1] = Molar enthalpy of transition or fusion; conditions: Crystal; DSC
[2] = Crystal; DTA

Molar enthalpy of transition or fusion [1]: 0.629 ± 0.0406 kcal/mol
Normal melting temperature [2]: 169.47 ± 0.39 °C
Compound: Nc1cccnn1 [3-pyridazinamine]
